Read-outs that look alike come from different tables or passages of the source.
Assays:
CB2-WT = CB2-WT (Homo sapiens, UniProt P34972); experiment: [3H]CP55940 binding to CB2-WT in buffer supplemented with NaCl; details: NaCl up to 1000 mM; CB2-WT transiently expressed on CHO cell membrane
CB1 = details: read-out: Ki to the CB1 receptor; cited from earlier work
A2AAR = details: sodium 150 mM; cited from earlier work
wild-type CB2 (WT) = wild-type CB2 (WT) (Homo sapiens, UniProt P34972); experiment: Competition binding assay, displacement of [3H]-CP-55940, membranes of CHO cells
δ-opioid receptor = details: cited from earlier work

Sequence of wild-type CB2 (WT) (P34972 whole entry): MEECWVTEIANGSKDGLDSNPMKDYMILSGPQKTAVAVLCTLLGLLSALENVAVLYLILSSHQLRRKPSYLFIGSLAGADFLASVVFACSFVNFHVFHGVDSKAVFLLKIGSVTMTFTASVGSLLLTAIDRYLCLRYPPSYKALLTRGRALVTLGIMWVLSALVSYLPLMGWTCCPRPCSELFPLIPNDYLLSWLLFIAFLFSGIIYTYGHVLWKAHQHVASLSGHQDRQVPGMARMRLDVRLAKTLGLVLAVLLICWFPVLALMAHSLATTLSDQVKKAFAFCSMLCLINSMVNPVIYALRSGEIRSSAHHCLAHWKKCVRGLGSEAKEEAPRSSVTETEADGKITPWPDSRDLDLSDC
Sequence of CB2-WT (P34972 whole entry): as above

With `[Cl-].[Na+]` [Na^+, NaCl] the “effect on the binding of the CB2 agonist [3H]CP55940” value (CB2-WT) was “did not have any effect”.

In the case of `Cc1ccc(Cn2nc(C(=O)N[C@@H]3C(C)(C)[C@@H]4CC[C@@]3(C)C4)cc2-c2ccc(Cl)c(C)c2)cc1` [SR144528, 5-(4-chloro-3-methylphenyl)-1-[(4-methylphenyl)methyl]-N-[(1S,2S,4R)-1,3,3-trimethylbicyclo[2.2.1]hept-2-yl]-1H-pyrazole-3-carboxamide], the Ki (CB1) is given as 0.4 µM.

In the case of `CCNC(=O)[C@H]1O[C@@H](n2cnc3c(N)ncnc32)[C@H](O)[C@@H]1O` [[^3H]NECA, 5′-N-ethylcarboxamidoadenosine], the “binding detected in presence of sodium” value (A2AAR) is given as 25%.

For `N=C(N)NC(=O)c1nc(Cl)c(N)nc1N` [amiloride], the Ki (wild-type CB2 (WT); Ki value at CB2, competition binding, no added NaCl) was 495 µM and the Ki (wild-type CB2 (WT); Ki value at CB2 with 150 mM NaCl, with 150 mM NaCl) was 310 µM.

For “[D-Ala^2, D-Leu^5]-Enkephalin [[^3H]DADLE]”, the Ki (δ-opioid receptor; read-out: Ki value with 0 mM NaCl, 0 mM NaCl) is listed as 0.28 µM and the Ki (δ-opioid receptor; read-out: Ki value with 140 mM NaCl, 140 mM NaCl) is listed as 2.8 µM.

Source: publication PMC4170816 (Journal of Chemical Information and Modeling, 2014)
